Type in all cases: functional, cell-based
One assay relates to Kasumi 1. The experiment in a line: Antiproliferative activity against human Kasumi 1 cells assessed as inhibition cell proliferation incubated for 72 hrs by MTT assay. Particulars: Kasumi 1, 72 h.
Assay [1] is described as follows: Antiproliferative activity against mouse WEHI-3 cells assessed as inhibition cell proliferation incubated for 72 hrs by MTT assay. Particulars: WEHI-3, 72 h. (In general: Formazan colour is commonly taken as a measure of viable cells.)
In a further assay the test system is MV4-11. Description: Antiproliferative activity against human MV4-11 cells assessed as inhibition cell proliferation incubated for 72 hrs by MTT assay. The following applies: MV4-11, 72 h.

One may read the pIC50 as the negative decadic logarithm of the IC50, by convention in mol/L.

pIC50: −log10 of the molar value. Bounds are passed on as bounds.

For the compound `C=C1C[C@@H]2[C@@H](CC[C@]3(C)[C@@H](OS(=O)(=O)c4cccnc4)CC[C@@H]23)OC1=O`, the pIC50 in the assay with Kasumi 1 is 4.96; in assay [1] it was 4.88; with MV4-11 it was less than 4.70.

As to `C=C1C[C@@H]2[C@@H](CC[C@]3(C)[C@@H](OC(=O)c4ccc(-c5ccccc5)cc4)CC[C@@H]23)OC1=O`, the negative-log IC50 (pIC50) in the assay on Kasumi 1 is 4.74; in assay [1] it was 4.85; in the assay with MV4-11 it was 4.70.

Take `C=C1C[C@@H]2[C@@H](CC[C@]3(C)[C@@H](O[Si](C)(C)CCCCl)CC[C@@H]23)OC1=O`: the pIC50 (in the assay with Kasumi 1; in assay [1]; in the assay on MV4-11) was less than 4.70 in each case.

In the case of `C=C1C[C@@H]2[C@@H](CC[C@]3(C)[C@@H](O[Si](C)(C)C)CC[C@@H]23)OC1=O`, the pIC50 was 4.79 in the assay on Kasumi 1, 4.85 in assay [1] and less than 4.70 in the assay on MV4-11.

In the case of `C=C[Si](C)(O[C@H]1CC[C@H]2[C@@H]3CC(=C)C(=O)O[C@@H]3CC[C@]12C)c1ccccc1` (some centres undefined), the negative logarithm of the IC50 (pIC50) was 4.79 with Kasumi 1, 4.81 in assay [1] and less than 4.70 with MV4-11.

For `C=C1C[C@@H]2[C@@H](CC[C@]3(C)[C@@H](OC(c4ccccc4)c4ccccc4)CC[C@@H]23)OC1=O`, the pIC50 was 5.54 in the assay on Kasumi 1, 5.45 in assay [1] and 5.33 with MV4-11.

Regarding `C=C1C[C@@H]2[C@@H](CC[C@]3(C)[C@@H](OC(=O)c4ccc(C(F)(F)F)cc4)CC[C@@H]23)OC1=O`, the figures for the pIC50 (in the assay on Kasumi 1; in assay [1]; with MV4-11) were 5.00, 4.99 and 4.78, respectively.

With `C=C1C[C@@H]2[C@@H](CC[C@]3(C)[C@@H](OS(=O)(=O)c4ccc(OC)cc4)CC[C@@H]23)OC1=O`, the pIC50 is 5.08 in the assay with Kasumi 1, 5.03 in assay [1] and 4.84 in the assay with MV4-11.

With `C=C1C[C@@H]2[C@@H](CC[C@]3(C)[C@@H](OC(=O)c4ccccc4)CC[C@@H]23)OC1=O`, the pIC50 was 4.73 in the assay on Kasumi 1, 4.99 in assay [1] and 4.80 in the assay on MV4-11.

Turning to `C=C1C[C@@H]2[C@@H](CC[C@]3(C)[C@@H](O[Si](CC)(CC)CC)CC[C@@H]23)OC1=O`, the pIC50 in the assay on Kasumi 1 was 5.53; in assay [1], 5.67; in the assay on MV4-11, 5.34.

In the case of `C=C1C[C@@H]2[C@@H](CC[C@]3(C)[C@@H](O[Si](C)(C)C4CCCCC4)CC[C@@H]23)OC1=O`, the figures for the negative logarithm of the IC50 (pIC50) (in the assay with Kasumi 1; in assay [1]; with MV4-11) were 5.03, 5.10 and 4.98, respectively.

`C=C1C[C@@H]2[C@@H](CC[C@]3(C)[C@@H](OS(=O)(=O)c4c(C)noc4C)CC[C@@H]23)OC1=O`: the pIC50 in the assay on Kasumi 1 is 4.85; in assay [1], 4.88; in the assay with MV4-11, 4.80.

With `C=C1C[C@@H]2[C@@H](CC[C@]3(C)[C@@H](O[Si](C)(C)CCCCCCCCCCCCCCCCCC)CC[C@@H]23)OC1=O`, the pIC50 in the assay on Kasumi 1 was 5.23; in assay [1], 5.20; in the assay with MV4-11, 5.05.

Turning to `C=C1C[C@@H]2[C@@H](CC[C@]3(C)[C@@H](O[Si](C)(C)C(C)(C)C)CC[C@@H]23)OC1=O`, the negative-log IC50 (pIC50) is 5.43 in the assay with Kasumi 1, 5.63 in assay [1] and 5.08 in the assay on MV4-11.

In the case of `C=C1C[C@@H]2[C@@H](CC[C@]3(C)[C@@H](OS(=O)(=O)c4ccc(C)cc4)CC[C@@H]23)OC1=O`, the pIC50 in the assay with Kasumi 1 is 5.08; in assay [1], 5.03; in the assay with MV4-11, 5.02.

Consider `C=C1C[C@@H]2[C@@H](CC[C@]3(C)[C@@H](OS(=O)(=O)C[C@]45CC[C@](C)(C(=O)C4)C5(C)C)CC[C@@H]23)OC1=O`, for which the pIC50 in the assay with Kasumi 1 was 5.01; in assay [1], 5.08; in the assay on MV4-11 it was 4.91.

For the compound `C=C1C[C@@H]2[C@@H](CC[C@]3(C)[C@@H](OC(C)(C)C)CC[C@@H]23)OC1=O`, the negative logarithm of the IC50 (pIC50) in the assay on Kasumi 1 is 5.05; in assay [1], 5.14; in the assay with MV4-11, 4.93.

For `C=C1C[C@@H]2[C@@H](CC[C@]3(C)[C@@H](OC=O)CC[C@@H]23)OC1=O`, the pIC50 was 4.78 with Kasumi 1, 4.86 in assay [1] and less than 4.70 with MV4-11.

Consider `C=C[Si](C)(C)O[C@H]1CC[C@H]2[C@@H]3CC(=C)C(=O)O[C@@H]3CC[C@]12C`, for which the pIC50 (in the assay on Kasumi 1; in assay [1]; in the assay with MV4-11) was less than 4.70 in each case.

In the case of `C=C1C[C@@H]2[C@@H](CC[C@]3(C)[C@@H](OS(=O)(=O)c4cccs4)CC[C@@H]23)OC1=O`, the pIC50 in the assay with Kasumi 1 is 5.03; in assay [1], 5.08; with MV4-11 it was 5.06.

In the case of `C=C1C[C@@H]2[C@@H](CC[C@]3(C)[C@@H](O[Si](OCC)(OCC)OCC)CC[C@@H]23)OC1=O`, the negative logarithm of the IC50 (pIC50) (in the assay with Kasumi 1; in assay [1]; in the assay with MV4-11) was less than 4.70 in each case.

Take `C=C1C[C@@H]2[C@@H](CC[C@]3(C)[C@@H](O[Si](CCC)(CCC)CCC)CC[C@@H]23)OC1=O`: the pIC50 in the assay on Kasumi 1 was 5.89; in assay [1] it was 5.84; in the assay with MV4-11, 5.66.

As to `C=C1C[C@@H]2[C@@H](CC[C@]3(C)[C@@H](O[Si](c4ccccc4)(c4ccccc4)C(C)(C)C)CC[C@@H]23)OC1=O`, the pIC50 in the assay with Kasumi 1 was 5.82; in assay [1], 5.86; with MV4-11, 5.41.

As to `C=C1C[C@@H]2[C@@H](CC[C@]3(C)[C@@H](OC(=O)c4ccc(OC)cc4)CC[C@@H]23)OC1=O`, the pIC50 with Kasumi 1 is 4.81; in assay [1], 5.03; with MV4-11, less than 4.70.

For the compound `C=C1C[C@@H]2[C@@H](CC[C@]3(C)[C@@H](OC(=O)c4ccc(CC)cc4)CC[C@@H]23)OC1=O`, the negative-log IC50 (pIC50) in the assay on Kasumi 1 is 4.99; in assay [1], 5.17; with MV4-11, 4.79.

As for `C=C1C[C@@H]2[C@@H](CC[C@]3(C)[C@@H](OS(=O)(=O)Cc4ccccc4)CC[C@@H]23)OC1=O`, the pIC50 in the assay with Kasumi 1 is 4.81; in assay [1] it was 4.73; with MV4-11 it was less than 4.70.

Take `C=C1C[C@@H]2[C@@H](CC[C@]3(C)[C@@H](OS(=O)(=O)c4ccsc4C(=O)OC)CC[C@@H]23)OC1=O`: the negative-log IC50 (pIC50) was less than 4.70 in the assay with Kasumi 1, 4.74 in assay [1] and less than 4.70 in the assay on MV4-11.

In the case of `CC(C)[Si](O[C@H]1CC[C@H]2[C@@H]3CCC(=O)O[C@@H]3CC[C@]12C)(C(C)C)C(C)C`, the pIC50 (in the assay with Kasumi 1; in assay [1]; with MV4-11) was less than 4.70 in each case.

In the case of `C#CCCCC(=O)O[C@H]1CC[C@H]2[C@@H]3CC(=C)C(=O)O[C@@H]3CC[C@]12C`, the pIC50 (in the assay with Kasumi 1; in assay [1]; in the assay with MV4-11) was less than 4.70 throughout.

In the case of `C=C1C[C@@H]2[C@@H](CC[C@]3(C)[C@@H](O)CC[C@@H]23)OC1=O`, the results for the pIC50 (with Kasumi 1; in assay [1]; in the assay with MV4-11) were less than 4.70, 4.90 and less than 4.70, respectively.

For `C=C1C[C@@H]2[C@@H](CC[C@]3(C)[C@@H](O[Si](C)(C)C(C)C)CC[C@@H]23)OC1=O`, the negative-log IC50 (pIC50) (in the assay on Kasumi 1; in assay [1]; in the assay with MV4-11) was less than 4.70 each time.

For `C=C1C[C@@H]2[C@@H](CC[C@]3(C)[C@@H](OC(=O)C4CC4)CC[C@@H]23)OC1=O`, the pIC50 (in the assay on Kasumi 1; in assay [1]; with MV4-11) was less than 4.70 in each case.

Turning to `C=C1C[C@@H]2[C@@H](CC[C@]3(C)[C@@H](O[Si](c4ccccc4)(c4ccccc4)c4ccccc4)CC[C@@H]23)OC1=O`, the pIC50 is 5.23 in the assay on Kasumi 1, 5.34 in assay [1] and 5.27 in the assay on MV4-11.

`C=C1C[C@@H]2[C@@H](CC[C@]3(C)[C@@H](OS(=O)(=O)CCC)CC[C@@H]23)OC1=O`: the pIC50 (in the assay on Kasumi 1; in assay [1]; in the assay with MV4-11) was less than 4.70 each time.

On to `C[C@]12CC[C@H]3OC(=O)CC[C@H]3[C@@H]1CCC2=O`, for which the pIC50 (in the assay with Kasumi 1; in assay [1]; in the assay with MV4-11) was less than 4.00 throughout.

Turning to `C=C1C[C@@H]2[C@@H](CC[C@]3(C)[C@@H](OC(=O)c4ccc(F)cc4)CC[C@@H]23)OC1=O`, the pIC50 in the assay with Kasumi 1 is 4.98; in assay [1] it was 5.20; with MV4-11, 4.87.

In the case of `C=C1C[C@@H]2[C@@H](CC[C@]3(C)[C@@H](OS(=O)(=O)c4ccc(C#N)cc4)CC[C@@H]23)OC1=O`, the values for the pIC50 (in the assay with Kasumi 1; in assay [1]; in the assay with MV4-11) were 5.05, 5.12 and 5.04, respectively.

In the case of `C=C1C[C@@H]2[C@@H](CC[C@]3(C)[C@@H](O[Si](OC)(OC)OC)CC[C@@H]23)OC1=O`, the negative logarithm of the IC50 (pIC50) (in the assay on Kasumi 1; in assay [1]; with MV4-11) was less than 4.70 throughout.

Consider `C=C1C[C@@H]2[C@@H](CC[C@]3(C)[C@@H](OS(=O)(=O)CCCCCCC)CC[C@@H]23)OC1=O`, for which the pIC50 (with Kasumi 1; in assay [1]; with MV4-11) was less than 4.70 in each case.

For the compound `C=C1C[C@@H]2[C@@H](CC[C@]3(C)[C@@H](OC(=O)C4CCCC4)CC[C@@H]23)OC1=O`, the pIC50 with Kasumi 1 was less than 4.70; in assay [1], 4.81; in the assay with MV4-11, less than 4.70.

Take `C=C1C[C@@H]2[C@@H](CC[C@]3(C)[C@@H](OC(=O)c4ccc(C(F)(F)F)cn4)CC[C@@H]23)OC1=O`: the pIC50 in the assay with Kasumi 1 is 4.82; in assay [1], 5.09; with MV4-11, 4.85.

With `C=C1C[C@@H]2[C@@H](CC[C@]3(C)[C@@H](OS(=O)(=O)CCN4C(=O)c5ccccc5C4=O)CC[C@@H]23)OC1=O`, the pIC50 is 5.11 in the assay with Kasumi 1, 5.04 in assay [1] and 4.81 with MV4-11.

As for `C=C1C[C@@H]2[C@@H](CC[C@]3(C)[C@@H](OC(=O)c4ccccn4)CC[C@@H]23)OC1=O`, the pIC50 in the assay on Kasumi 1 was 4.86; in assay [1], 5.05; in the assay on MV4-11, 4.78.

The record behind these values is ChEMBL document CHEMBL6115002, “Discovery of novel sitolactone derivative leading to PANoptosis and differentiation of acute myeloid leukemia cells” (Eur J Med Chem, 2025).
